Patent publication US11896678B2, “Compositions and methods for treatment of peroxisome proliferator-activated receptor gamma (PPARG) activated cancer” (THE BROAD INSTITUTE, INC., priority 2017, dated 2024)

What was measured:
[1] = cited from earlier work
[2] = cited from earlier work; remark: listed apart in the source
[3] = alone; cited from earlier work
[4] = system: FABP4 expression; experiment: Immunoblot of FABP4 in bladder cancer cell lines; format: cell-based, human; settings: panel of bladder cancer cell lines
Method: Western Blot Analysis: Western blots were performed using standard protocols with semi-dry transfer Trans-Blot® SD (Bio-Rad Hercules, CA), Li-Cor Odyssey Blocking buffer, and imaging with LiCor Odyssey Imaging System (LI-COR Lincoln, NE). Briefly, cells were grown in 6-well plates and harvested using Complete Lysis-M with protease and phosphatase inhibitors (Roche Applied Science). Western blot analyses were performed using standard protocols with semi-dry transfer Trans-Blot SD (Bio-Rad), LI-COR Odyssey Blocking buffer, and imaging with LI-COR Odyssey Imaging System (LI-COR). The anti-PPARG C26H12, anti-PPARG 81B8, anti-FABP4 D25B3, and anti-CEACAM5 CB30 antibodies were obtained from Cell Signaling Technology. The anti-ACSL5 ab57210 and anti-HMCGS2 EPR8642 antibodies were obtained from Abcam. The anti-VCL (vinculin) V9264 antibody was obtained from Sigma-Aldrich. All primary antibodies were tested at 1:1,000 dilutions, with the exception of anti-VCL, which was tested at a 1:5,000 dilution. Secondary goat anti-mouse 926-68020, and goat-anti-rabbit 926-32211 antibodies were obtained from LI-COR Biosciences and used at 1:15,000 dilutions.

[5] = system: 5637 cells; experiment: Proliferation assay in PPARG-amplified 5637 cells; format: cell-based; settings: Homo sapiens; data not shown
Method: To determine if treatment of PPARG-activated bladder cancer cell lines with PPARG modulators impacted viability, a variety of compounds were tested in proliferation assays.

[6] = system: UM-UC-9 cells; experiment: Direct cell counting dose-response proliferation assay; format: cell-based, human
Method: To determine whether PPARG modulators affect the proliferation and/or viability of PPARG-activated bladder cancer cell lines, a direct cell counting-based assay was performed. This assay likely avoids potential artifacts associated with the use of an ATP content-based assay, given that PPAR modulators are known to regulate cellular metabolic activity. […] These IC50 values align well with the calculated IC50s from both the cell-based reporter gene assay (FIG. 8A) and the biochemical corepressor assay (FIG. 8D).
(§1) Proliferation Assays: To enable cell-counting experiments, cell lines were transduced with a lentiviral vector encoding nuclear-targeted GFP, TagGFP2-H2B (Evrogen), and stable pools generated following selection for puromycin resistance. Cell lines were maintained for at least 7 days following selection prior to expansion and seeding into 96- or 384-well plates for further analysis. For kinetic proliferation assays, 96-well plates (n 1% 4 per condition) were imaged and counted every two hours using IncuCyte Zoom (Essen BioScience). Media and compounds were replaced approximately every 3-4 days. For endpoint assays to measure dose-response, cells were plated in 384-well plates, dosed with compound, and upon reaching approximately 70% to 90% confluence in control wells, cells were either counted using fluorescence imaging (Incu-Cyte Zoom) or incubated with CyQuant (Thermo Fisher) at the indicated time and plates were read with a fluorescent plate reader.

[7] = system: PPARG-activated bladder cancer cell lines; experiment: Proliferation assays in PPARG-activated bladder cancer cell lines; format: cell-based, human; settings: 100 nM-500 nM
Method: A panel of bladder cancer cell lines with PPARG modulators in colony formation assays was then tested (FIG. 10), kinetic proliferation assays (IncuCyte Zoom; Essen Bioscience) using cell lines treated with a single concentration of compound (100 nM-500 nM), and end-point dose-response assays (CellTiter Glo or CyQuant).
This assay was expanded to include an additional 8 representative bladder cancer cell lines, including cell lines with PPARG amplification, RXRA p.S427F mutation, activated gene signature, and control cell lines with low level expression of PPARG and target genes. […] Representative data for the UM-UC-9 cell line are shown in FIG. 6B, and is tabulated for the tested bladder cancer cell lines in Table 1. […] This significant (P<0.01) preferential sensitivity to PPARG inverse-agonists, but not antagonists, is maintained across all of the PPARG-activated cell lines in the panel, including the RXRA p.S427F cell line, HT-1197 (41), the PPARG-amplified cell lines, 5637 and UM-UC-9, and the PPARG activation gene signature cell lines Cal29, UM-UC-1, and RT112/84 (FIG. 12). […] Similar results were obtained with these cell lines in parallel studies using clonogenic assays to quantify colony-forming ability (FIG. 10).
as §1

[8] = system: PPARG-activated pancreatic and colorectal cancer cell lines; experiment: Kinetic proliferation assay in pancreatic and colorectal cancer cell lines; format: cell-based; settings: 500 nM
Text: To enable cell-counting, cell lines were transduced with a lentiviral vector encoding nuclear-targeted GFP (TagGFP2-H2B), and stable pools generated following selection for puromycin-resistance. Cell lines were maintained for at least 7 days following selection prior to expansion and seeding into 96-well plates for further analysis. For kinetic proliferation assays, 96-well plates were imaged in phase-contrast and green fluorescence mode every two hours using IncuCyte Zoom (Essen BioScience, Ann Arbor MI). Using IncuCyte software, the number of fluorescent nuclei were counted to monitor quantitative changes in cell number over time. Media and compounds were replaced approximately every 3-4 days.
DMSO treatment was also included as a vehicle control.

[9] = target: T1, PPARA (Homo sapiens, UniProt Q07869); settings: read-out: apparent Ki; cited from earlier work
T1 sequence (Q07869 1-468): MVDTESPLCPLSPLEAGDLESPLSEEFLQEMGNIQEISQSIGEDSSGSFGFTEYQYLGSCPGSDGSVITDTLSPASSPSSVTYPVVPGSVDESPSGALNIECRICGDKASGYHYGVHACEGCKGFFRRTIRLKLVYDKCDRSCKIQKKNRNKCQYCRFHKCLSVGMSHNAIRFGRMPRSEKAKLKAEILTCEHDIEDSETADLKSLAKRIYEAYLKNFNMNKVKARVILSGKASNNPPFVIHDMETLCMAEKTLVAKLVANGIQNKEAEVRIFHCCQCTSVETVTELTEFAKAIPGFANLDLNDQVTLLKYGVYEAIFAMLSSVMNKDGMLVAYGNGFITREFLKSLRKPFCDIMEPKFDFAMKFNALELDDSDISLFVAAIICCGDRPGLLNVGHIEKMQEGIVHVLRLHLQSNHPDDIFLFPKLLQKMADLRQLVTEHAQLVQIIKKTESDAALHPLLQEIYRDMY

[10] = system: DLBCL cells; settings: 1-15 uM; cited from earlier work
[11] = system: bladder cancer; settings: rodents; cited from earlier work
[12] = system: urinary bladder carcinogenesis; settings: rats; cited from earlier work

## N.N.O=C([O-])C1(C(=O)[O-])CCC1.[Pt+2] [Carboplatin, platinum, diammine [1,1-cyclobutane-dicarboxylato(2-)-0,0′]-(SP-4-2)]
[1]
  solubility in water: approximately 14 mg/mL
[2]
  pH of a 1% solution: 5-7
[3]
  oral bioavailability: approximately 4%

## O=C(Nc1ccncc1)c1cc([N+](=O)[O-])ccc1Cl [T0070907, 2-Chloro-5-nitro-N-4-pyridinyl-benzamide]
[4]
  expression of FABP4: able to reduce expression of FABP4
[5]
  IC50: 20 to 30 nM
[6]
  effect on cell proliferation compared with DMSO control: significantly reduced proliferation
[6]; Homo sapiens, UM-UC-9, read-out: calculated IC50, proliferation
  IC50: 39 nM
[7]
  sensitivity of cell lines: preferentially sensitive
[8]
  sensitivity of cell lines: preferentially sensitive
[9]
  Ki: ~850 nM
[10]
  growth of DLBCL cells: attenuate growth

## CN(CCOc1ccc(CC2SC(=O)NC2=O)cc1)c1ccccn1 (stereo not shown) [rosiglitazone]
[11]
  carcinogenic effect, bladder cancer: not
[12]
  urinary bladder carcinogenesis compared with OH-BBN alone: potentiate urinary bladder carcinogenesis
